Our source for the GI50 and TGI values is PubChem BioAssay (NCI).

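Five concentrations, 48 hours, 96-well plates. At the GI50, growth is halved. TGI is the concentration that stops growth completely.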 Where only a bound is given, the exact number is not on record here.

Some test systems named below: ACHN renal; K-562 leukemia; KM12 colon; LOX IMVI melanoma; MOLT-4 leukemia; NCI-H522 lung; SF-295 CNS; SK-OV-3 ovarian; UO-31 renal; UACC-62 melanoma.
Test in all cases: NCI-60 cell line screen, 48 h

Consider `O=C(c1ccccc1)c1ccc(Cl)c([N+](=O)[O-])c1`, for which the GI50 with ACHN renal is 7.14 µM; in the experiment with K-562 leukemia, 3.44 µM; in the experiment on KM12 colon, 5.97 µM; in the experiment on LOX IMVI melanoma, 2.43 µM; in the experiment with MOLT-4 leukemia, 4.17 µM; in the experiment with NCI-H522 lung, 1.41 µM. Moreover, the values for the GI50 in the experiment with SF-295 CNS, with SK-OV-3 ovarian and with UO-31 renal were 17.8 µM, 15.8 µM and 2.25 µM, respectively. Moreover, the TGI was found to be 21.3 µM in the experiment on ACHN renal; 11.9 µM in the experiment on K-562 leukemia; 18.9 µM with KM12 colon; 6.11 µM in the experiment with LOX IMVI melanoma; 22.3 µM with MOLT-4 leukemia; 6.18 µM in the experiment with NCI-H522 lung. The figures for the TGI in the experiment with SF-295 CNS, with SK-OV-3 ovarian and with UO-31 renal were 34.5 µM, 29.9 µM and 5.34 µM, respectively.
Regarding `CC1(C)CC(=O)C(C(c2cccc(O)c2O)C2C(=O)CC(C)(C)CC2=O)C(=O)C1`, the TGI in the experiment on ACHN renal, in the experiment with K-562 leukemia, in the experiment with KM12 colon, in the experiment on LOX IMVI melanoma, in the experiment on MOLT-4 leukemia and with NCI-H522 lung was greater than 100 µM throughout. Also, the TGI in the experiment with SF-295 CNS, in the experiment with SK-OV-3 ovarian and in the experiment on UACC-62 melanoma was greater than 100 µM throughout.
`O=C(c1ccccn1)c1nnn2ccccc12`: the TGI in the experiment with ACHN renal, with K-562 leukemia, in the experiment on KM12 colon, with LOX IMVI melanoma, in the experiment on MOLT-4 leukemia and in the experiment on NCI-H522 lung was greater than 100 µM throughout. The TGI in the experiment on SF-295 CNS, with SK-OV-3 ovarian and in the experiment on UACC-62 melanoma was greater than 100 µM each time.
With `COC(=O)CCC(=O)CC(=O)C(=O)Nc1ccc(F)cc1`, the TGI in the experiment with ACHN renal, in the experiment with K-562 leukemia, with KM12 colon, in the experiment on LOX IMVI melanoma, in the experiment with MOLT-4 leukemia and in the experiment with NCI-H522 lung was greater than 100 µM each time. Besides, the TGI in the experiment with SK-OV-3 ovarian, in the experiment on UACC-62 melanoma and in the experiment on UO-31 renal was greater than 100 µM throughout.
Turning to `COC1OCC(OS(=O)(=O)c2ccc(C)cc2)C(OC(=O)c2ccccc2)C1OC(=O)c1ccccc1` (stereo not given), the GI50 in the experiment on ACHN renal is 8.83 µM; in the experiment on K-562 leukemia, 3.16 µM; in the experiment on KM12 colon, 4.04 µM; in the experiment on LOX IMVI melanoma, 5.05 µM; in the experiment on NCI-H522 lung, 1.56 µM; with SF-295 CNS, 3.63 µM. The GI50 with SK-OV-3 ovarian is 21.7 µM; with UACC-62 melanoma, 3.48 µM; with UO-31 renal, greater than 100 µM. The TGI in the experiment with ACHN renal was greater than 100 µM; in the experiment with K-562 leukemia it was greater than 100 µM; in the experiment on KM12 colon, greater than 100 µM; with LOX IMVI melanoma, greater than 100 µM; in the experiment on NCI-H522 lung, 7.09 µM; in the experiment with SF-295 CNS, greater than 100 µM. Further, the TGI in the experiment on SK-OV-3 ovarian, with UACC-62 melanoma and in the experiment on UO-31 renal was greater than 100 µM throughout.
On to `CSC(=S)N/N=C/c1ccccc1`, for which the TGI in the experiment on ACHN renal, with K-562 leukemia, in the experiment on KM12 colon, in the experiment on LOX IMVI melanoma, in the experiment on NCI-H522 lung and with SF-295 CNS was greater than 100 µM in each case. Further, the TGI with SK-OV-3 ovarian, in the experiment on UACC-62 melanoma and in the experiment on UO-31 renal was greater than 100 µM each time.
Regarding `COc1cc(-c2cc(/C=C/C(=O)c3ccc4c(c3)OCO4)[nH]n2)cc(OC)c1OC`, the GI50 with ACHN renal is 1.88 µM; with K-562 leukemia, 3.2 µM; with LOX IMVI melanoma it was 1.82 µM; in the experiment with MOLT-4 leukemia it was 2.98 µM; in the experiment on NCI-H522 lung, 1.03 µM; in the experiment with SK-OV-3 ovarian, 5.76 µM. Besides, the GI50 is 4.67 µM in the experiment on UACC-62 melanoma and 1.91 µM in the experiment on UO-31 renal. Moreover, the TGI worked out at 3.71 µM with ACHN renal; 9.81 µM in the experiment on K-562 leukemia; 3.78 µM with LOX IMVI melanoma; 9.15 µM with MOLT-4 leukemia; 2.35 µM in the experiment with NCI-H522 lung; 26.1 µM in the experiment with SK-OV-3 ovarian. The TGI with UACC-62 melanoma is greater than 100 µM; in the experiment with UO-31 renal, 5.44 µM.
On to `COc1cc(C2c3cc4c(cc3[C@H](NC(=O)c3cccs3)C3COC(=O)[C@H]23)OCO4)cc(OC)c1OC` (stereo not given in full), for which the TGI in the experiment with ACHN renal was 18.7 µM; with K-562 leukemia it was greater than 37.8 µM; in the experiment on LOX IMVI melanoma, greater than 41 µM; with MOLT-4 leukemia it was 24.5 µM; with NCI-H522 lung, 0.0213 µM; with SK-OV-3 ovarian, greater than 100 µM. For the same molecule, the TGI in the experiment with UACC-62 melanoma is greater than 100 µM; with UO-31 renal, greater than 44.3 µM.
With `Cc1cc(Cl)ccc1NC(=O)/C(Cl)=C(/Cl)C(=O)O`, the TGI in the experiment on ACHN renal was 36.1 µM; with K-562 leukemia it was greater than 100 µM; in the experiment on KM12 colon, 82.8 µM; with LOX IMVI melanoma, 43 µM; in the experiment with NCI-H522 lung, 32.7 µM; with SF-295 CNS it was greater than 100 µM. For the same molecule, the TGI in the experiment on SK-OV-3 ovarian is greater than 100 µM; in the experiment with UACC-62 melanoma, 48.8 µM; with UO-31 renal, greater than 100 µM.
Turning to `CC(C)(C)C(=O)OCOP(=O)(OCOC(=O)C(C)(C)C)C1CCCN(OC(=O)c2ccccc2)C1=O` (stereo not given), the GI50 is 0.666 µM in the experiment with ACHN renal; 0.496 µM in the experiment on K-562 leukemia; 0.549 µM in the experiment with KM12 colon; 2.53 µM with LOX IMVI melanoma; 1.02 µM in the experiment with MOLT-4 leukemia; 0.338 µM in the experiment with NCI-H522 lung. Besides, the GI50 in the experiment on SK-OV-3 ovarian was 1.99 µM; in the experiment with UACC-62 melanoma it was 1.09 µM; in the experiment on UO-31 renal, 0.297 µM. For the same molecule, the TGI is 11.7 µM with ACHN renal; greater than 100 µM in the experiment with K-562 leukemia; 5.94 µM in the experiment on KM12 colon; 20.9 µM in the experiment on LOX IMVI melanoma; 8.45 µM in the experiment on MOLT-4 leukemia; 1.5 µM in the experiment with NCI-H522 lung. In addition, the values for the TGI with SK-OV-3 ovarian, with UACC-62 melanoma and in the experiment with UO-31 renal were 27.1 µM, 2.99 µM and 2.36 µM, respectively.
As to `COc1ccc(-c2cn(-c3ccc(Cl)cc3)c(=S)[nH]2)cc1OC`, the GI50 was 9.53 µM in the experiment on ACHN renal; greater than 100 µM in the experiment on K-562 leukemia; 23.8 µM in the experiment on KM12 colon; 1.52 µM in the experiment on LOX IMVI melanoma; greater than 100 µM in the experiment with MOLT-4 leukemia; 21.5 µM in the experiment with NCI-H522 lung. The GI50 in the experiment with SF-295 CNS is 6.05 µM; in the experiment on SK-OV-3 ovarian, 48.9 µM; in the experiment on UO-31 renal, 39.6 µM. For the same molecule, the TGI was greater than 100 µM in the experiment on ACHN renal; greater than 100 µM in the experiment on K-562 leukemia; greater than 100 µM in the experiment with KM12 colon; 3.11 µM with LOX IMVI melanoma; greater than 100 µM with MOLT-4 leukemia; greater than 100 µM in the experiment with NCI-H522 lung. In addition, the TGI with SF-295 CNS, with SK-OV-3 ovarian and in the experiment with UO-31 renal was greater than 100 µM throughout.
As for `O=C(CC1(O)C(=O)Nc2c(Cl)cccc21)c1ccccc1` (stereo not given), the TGI in the experiment on ACHN renal, in the experiment with K-562 leukemia, in the experiment on KM12 colon, in the experiment on LOX IMVI melanoma, in the experiment with MOLT-4 leukemia and in the experiment on NCI-H522 lung was greater than 100 µM each time. In addition, the TGI with SF-295 CNS, in the experiment on SK-OV-3 ovarian and with UO-31 renal was greater than 100 µM in each case.
